According to the OligoGym collection:
HELM strings list units from the 5' end as sugar, base in round brackets, then linkage (d deoxyribose, r ribose, m 2'-O-methyl, p phosphodiester). Strings are as the collection lists them; they lack the last nucleoside at the 3' end of the tested compound. [moe] = 2'-O-(2-methoxyethyl) (MOE); [sp] = phosphorothioate linkage; [m5C] = 5-methylcytosine

Molecular target: UBE3A-ATS
Test: mouse, dose not given
Details: ASO

| Substance | 3 h FOB score [score 0-7] |
| --- | --- |
| RNA1{[moe]([m5C])[sp].[moe](A)p.[moe](G)p.[moe](A)p.[moe](G)p.d(T)[sp].d(G)[sp].d(T)[sp].d([m5C])[sp].d(T)[sp].d(T)[sp].d(A)[sp].d(G)[sp].d(G)[sp].d(G)[sp].[moe](T)p.[moe]([m5C])p.[moe](T)[sp].[moe]([m5C])}$$$$ (last 3' nucleoside missing) | 5.5 |
| RNA1{[moe]([m5C])[sp].[moe](A)p.[moe](G)p.[moe](A)p.[moe](T)p.d(T)[sp].d([m5C])[sp].d([m5C])[sp].d(T)[sp].d(A)[sp].d(A)[sp].d(A)[sp].d(T)[sp].d(A)[sp].d([m5C])[sp].[moe](G)p.[moe]([m5C])p.[moe](A)[sp].[moe]([m5C])}$$$$ (last 3' nucleoside missing) | 0 |
| RNA1{[moe]([m5C])[sp].[moe](A)p.[moe](G)p.[moe](A)p.[moe]([m5C])p.d(T)[sp].d(T)[sp].d(A)[sp].d(T)[sp].d(T)[sp].d(G)[sp].d(A)[sp].d(G)[sp].d(G)[sp].d(A)[sp].[moe](T)p.[moe](G)p.[moe](G)[sp].[moe](T)}$$$$ (last 3' nucleoside missing) | 5.7 |
| RNA1{[moe]([m5C])[sp].[moe](A)p.[moe](G)p.[moe](G)p.[moe](T)p.d(G)[sp].d(T)[sp].d([m5C])[sp].d(T)[sp].d(T)[sp].d(A)[sp].d(T)[sp].d(A)[sp].d(T)[sp].d([m5C])[sp].[moe](T)p.[moe](A)p.[moe](T)[sp].[moe](G)}$$$$ (last 3' nucleoside missing) | 0 |
| RNA1{[moe]([m5C])[sp].[moe](A)p.[moe](G)p.[moe](T)[sp].d(T)[sp].d(A)[sp].d(G)[sp].d(G)[sp].d(T)[sp].d(T)[sp].d(A)[sp].d(G)[sp].[moe](T)p.[moe](G)p.[moe]([m5C])p.[moe](A)[sp].[moe]([m5C])}$$$$ (last 3' nucleoside missing) | 2 |
| RNA1{[moe]([m5C])[sp].[moe](A)p.[moe](G)p.[moe](T)p.[moe](A)p.d(G)[sp].d(T)[sp].d(G)[sp].d(G)[sp].d(T)[sp].d(A)[sp].d(T)[sp].d([m5C])[sp].d(A)[sp].d(A)[sp].[moe](A)p.[moe](T)p.[moe]([m5C])[sp].[moe](T)}$$$$ (last 3' nucleoside missing) | 6.2 |
| RNA1{[moe]([m5C])[sp].[moe](A)p.[moe](G)p.[moe](T)p.[moe](A)p.d(T)[sp].d([m5C])[sp].d(T)[sp].d(T)[sp].d(A)[sp].d(A)[sp].d([m5C])[sp].d(T)[sp].d(G)[sp].d(G)[sp].[moe](T)p.[moe](G)p.[moe](A)[sp].[moe](A)}$$$$ (last 3' nucleoside missing) | 1 |
| RNA1{[moe]([m5C])[sp].[moe](A)p.[moe](G)p.[moe](T)p.[moe](T)[sp].d(A)[sp].d(G)[sp].d(G)[sp].d(T)[sp].d(T)[sp].d(A)[sp].d(G)[sp].d(T)[sp].[moe](G)p.[moe]([m5C])p.[moe](A)[sp].[moe]([m5C])}$$$$ (last 3' nucleoside missing) | 4 |
| RNA1{[moe]([m5C])[sp].[moe](A)p.[moe](G)p.[moe](T)p.[moe](T)p.[moe](A)[sp].d(G)[sp].d(G)[sp].d(T)[sp].d(T)[sp].d(A)[sp].d(G)[sp].d(T)[sp].d(G)[sp].[moe]([m5C])p.[moe](A)[sp].[moe]([m5C])}$$$$ (last 3' nucleoside missing) | 3.7 |
| RNA1{[moe]([m5C])[sp].[moe](A)p.[moe](G)p.[moe](T)p.[moe](T)p.[moe](A)p.d(G)[sp].d(G)[sp].d(T)[sp].d(T)[sp].d(A)[sp].d(G)[sp].d(T)[sp].d(G)[sp].d([m5C])[sp].d(A)[sp].[moe]([m5C])p.[moe](A)[sp].[moe](G)}$$$$ (last 3' nucleoside missing) | 5.2 |
| RNA1{[moe]([m5C])[sp].[moe](A)p.[moe](G)p.[moe](T)p.[moe](T)p.d(A)[sp].d(G)[sp].d(G)[sp].d(T)[sp].d(T)[sp].d(A)[sp].d(G)[sp].d(T)[sp].d(G)[sp].d([m5C])[sp].[moe](A)p.[moe]([m5C])p.[moe](A)[sp].[moe](G)}$$$$ (last 3' nucleoside missing) | 6 |
| RNA1{[moe]([m5C])[sp].[moe](A)p.[moe](G)p.[moe](T)p.[moe](T)p.d(G)[sp].d(T)[sp].d(G)[sp].d(T)[sp].d(A)[sp].d(T)[sp].d(T)[sp].d(G)[sp].d(A)[sp].d([m5C])[sp].[moe](T)p.[moe](A)p.[moe](A)[sp].[moe](G)}$$$$ (last 3' nucleoside missing) | 4.8 |
| RNA1{[moe]([m5C])[sp].[moe](A)p.[moe](G)p.[moe](T)p.[moe](T)p.d(T)[sp].d(T)[sp].d([m5C])[sp].d(G)[sp].d([m5C])[sp].d([m5C])[sp].d([m5C])[sp].d(G)[sp].d(T)[sp].d(T)[sp].[moe](A)p.[moe]([m5C])p.[moe]([m5C])[sp].[moe](T)}$$$$ (last 3' nucleoside missing) | 5 |
| RNA1{[moe]([m5C])[sp].[moe](A)p.[moe](G)p.[moe]([m5C])p.[moe]([m5C])p.d(A)[sp].d(G)[sp].d(G)[sp].d(T)[sp].d(G)[sp].d(T)[sp].d([m5C])[sp].d(T)[sp].d(T)[sp].d(A)[sp].[moe](T)p.[moe](A)p.[moe](T)[sp].[moe]([m5C])}$$$$ (last 3' nucleoside missing) | 2.3 |
| RNA1{[moe]([m5C])[sp].[moe](A)p.[moe](G)p.[moe]([m5C])p.[moe]([m5C])p.d(A)[sp].d([m5C])[sp].d(T)[sp].d(T)[sp].d(T)[sp].d(G)[sp].d([m5C])[sp].d(A)[sp].d(A)[sp].d([m5C])[sp].[moe](T)p.[moe]([m5C])p.[moe](A)[sp].[moe](A)}$$$$ (last 3' nucleoside missing) | 6.2 |
| RNA1{[moe]([m5C])[sp].[moe](A)p.[moe](T)p.[moe](A)[sp].d([m5C])[sp].d([m5C])[sp].d([m5C])[sp].d(A)[sp].d(G)[sp].d(G)[sp].d(G)[sp].d(T)[sp].[moe](A)p.[moe](G)p.[moe](G)p.[moe](A)[sp].[moe](T)}$$$$ (last 3' nucleoside missing) | 1 |
| RNA1{[moe]([m5C])[sp].[moe](A)p.[moe](T)p.[moe](A)p.[moe](T)p.d(A)[sp].d([m5C])[sp].d(T)[sp].d(A)[sp].d(A)[sp].d(A)[sp].d(T)[sp].d(G)[sp].d(T)[sp].d(T)[sp].[moe](G)p.[moe]([m5C])p.[moe]([m5C])[sp].[moe](G)}$$$$ (last 3' nucleoside missing) | 1 |
| RNA1{[moe]([m5C])[sp].[moe](A)p.[moe](T)p.[moe](A)p.[moe](T)p.d(G)[sp].d(A)[sp].d(A)[sp].d(G)[sp].d([m5C])[sp].d(T)[sp].d(A)[sp].d(T)[sp].d(A)[sp].d(G)[sp].[moe](G)p.[moe](T)p.[moe](A)[sp].[moe]([m5C])}$$$$ (last 3' nucleoside missing) | 1 |
| RNA1{[moe]([m5C])[sp].[moe](A)p.[moe](T)p.[moe](A)p.[moe]([m5C])[sp].d([m5C])[sp].d([m5C])[sp].d(A)[sp].d(G)[sp].d(G)[sp].d(G)[sp].d(T)[sp].d(A)[sp].[moe](G)p.[moe](G)p.[moe](A)[sp].[moe](T)}$$$$ (last 3' nucleoside missing) | 1 |
